Experimental data as given in patent US10894798B2, “Substituted dihydropyrrolopyrazole derivative” (UBE INDUSTRIES, LTD., priority 2015, dated 2021).

Legend:
[1] = test system: human large intestine cancer cell line HCT-116; experiment: In vitro cell growth inhibitory activity against human large intestine cancer line by combined use with chemotherapeutic; format: cell-based; settings: HCT-116, 3 days, single-agent treatment
Procedure: A human large intestine cancer cell line HCT-116 (obtained from DS Pharma Biomedical Co., Ltd.) was cultured in a McCoy's 5A medium (manufactured by Thermo Fisher Scientific, Inc.) containing 10% fetal bovine serum (FBS) (manufactured by Thermo Fisher Scientific, Inc.) and 1% penicillin/streptomycin/amphotericin B (manufactured by Thermo Fisher Scientific, Inc.) and inoculated at 0.5 to 2.0×10^3 cells/well to a 96-well plate. The cells were cultured overnight in a carbon dioxide incubator of 37° C. containing 5% carbon dioxide. The medium was replaced with a fresh medium on the next day, and then, a mixed solution of a DMSO solution of a test compound (IV-361, 5-FU or SN-38) with varying concentrations and a cell culture medium (final DMSO concentration: 0.2%) was added thereto. The concentration of the test compound was 10 nM, the concentration of 5-FU (manufactured by Wako Pure Chemical Industries, Ltd.) was 1000 nM, and the concentration of SN-38 (manufactured by Tocris Bioscience) was adjusted to 1 nM to carry out the test. For a control group, a mixed solution of DMSO and a cell culture medium (final DMSO concentration: 0.2%) was used instead of the DMSO solution of the test compound.
After the addition of the DMSO solution of the test compound, the cells were cultured for 3 days in a carbon dioxide incubator. Then, the absorbance (measurement wavelength: 565 nm) of the medium in each group was measured by using In Vitro Toxicology Assay Kit Sulforhodamine B based (manufactured by Sigma-Aldrich Co. LLC.).
The rate of inhibition of growth (%) was calculated according to the expression given below. Specifically, in the case where the difference between the average absorbance before culture (day 0) and the average absorbance after culture in the test compound-administered group is the same as the difference between the average absorbance before culture (day 0) and the average absorbance after culture in the control group, the rate of inhibition of cell growth is 0%. Rate of inhibition of growth=(1−((Average absorbance of the test compound-administered group after culture)−(Average absorbance of the test compound-administered group on day 0))/((Average absorbance of the control group after culture)−(Average absorbance of the control group on day 0)))×100

[2] = test system: human large intestine cancer cell line (HCT-116) tumor; experiment: In vivo tumor growth inhibition test for human large intestine cancer cell line by combined use with chemotherapeutic; settings: Table 52; 5-FU 15 mg/kg/day intraperitoneal, alone
Procedure: The prepared cell suspension was subcutaneously injected at 0.1 mL/mouse to the right abdomens of female BALB nude mice (supplied by Charles River Laboratories Japan, Inc.).
Individuals whose tumor volume was within the range of 50 to 200 mm^3 were selected and grouped such that the tumor volume was almost equivalent. After the grouping, a test compound or only a solvent was administered in a repeated manner to the mice of each group as follows:
Single-agent administration group:
Control group: solvent (administered once a day)
5-FU, oxaliplatin, and irinotecan were intraperitoneally administered (5 mL/kg).
After a lapse of a predetermined period, the body weights of the mice of each group and the long diameter and short diameter of tumor were measured, and the tumor volume of the test compound-administered group with respect to the tumor volume of the control group was calculated as the rate of suppression of tumor volume (%).

Row | Structure (SMILES) | inhibition at 1 µM ([1]; Homo sapiens, 72 h, 5-FU 1000 nM, read-out: Rate of inhibition of growth (%)) | Rate of suppression of tumor volume [2] | Rate of inhibition of growth (%) ([1]; SN-38 1 nM)
1 | O=c1[nH]cc(F)c(=O)[nH]1 [5-FU, 5-Fluorouracil, reference compound] | 25% | 21% | 
2 | CCc1c2c(nc3ccc(O)cc13)-c1cc3c(c(=O)n1C2)COC(=O)[C@]3(O)CC [SN-38, reference compound] |  |  | 12%
